This is an account of results in ChEMBL document CHEMBL1201862, “PubChem BioAssay data set” (2004).

Assay [1] addresses T1, Apoptotic protease-activating factor 1 (Homo sapiens, UniProt O14727).
T1 sequence (O14727 whole entry): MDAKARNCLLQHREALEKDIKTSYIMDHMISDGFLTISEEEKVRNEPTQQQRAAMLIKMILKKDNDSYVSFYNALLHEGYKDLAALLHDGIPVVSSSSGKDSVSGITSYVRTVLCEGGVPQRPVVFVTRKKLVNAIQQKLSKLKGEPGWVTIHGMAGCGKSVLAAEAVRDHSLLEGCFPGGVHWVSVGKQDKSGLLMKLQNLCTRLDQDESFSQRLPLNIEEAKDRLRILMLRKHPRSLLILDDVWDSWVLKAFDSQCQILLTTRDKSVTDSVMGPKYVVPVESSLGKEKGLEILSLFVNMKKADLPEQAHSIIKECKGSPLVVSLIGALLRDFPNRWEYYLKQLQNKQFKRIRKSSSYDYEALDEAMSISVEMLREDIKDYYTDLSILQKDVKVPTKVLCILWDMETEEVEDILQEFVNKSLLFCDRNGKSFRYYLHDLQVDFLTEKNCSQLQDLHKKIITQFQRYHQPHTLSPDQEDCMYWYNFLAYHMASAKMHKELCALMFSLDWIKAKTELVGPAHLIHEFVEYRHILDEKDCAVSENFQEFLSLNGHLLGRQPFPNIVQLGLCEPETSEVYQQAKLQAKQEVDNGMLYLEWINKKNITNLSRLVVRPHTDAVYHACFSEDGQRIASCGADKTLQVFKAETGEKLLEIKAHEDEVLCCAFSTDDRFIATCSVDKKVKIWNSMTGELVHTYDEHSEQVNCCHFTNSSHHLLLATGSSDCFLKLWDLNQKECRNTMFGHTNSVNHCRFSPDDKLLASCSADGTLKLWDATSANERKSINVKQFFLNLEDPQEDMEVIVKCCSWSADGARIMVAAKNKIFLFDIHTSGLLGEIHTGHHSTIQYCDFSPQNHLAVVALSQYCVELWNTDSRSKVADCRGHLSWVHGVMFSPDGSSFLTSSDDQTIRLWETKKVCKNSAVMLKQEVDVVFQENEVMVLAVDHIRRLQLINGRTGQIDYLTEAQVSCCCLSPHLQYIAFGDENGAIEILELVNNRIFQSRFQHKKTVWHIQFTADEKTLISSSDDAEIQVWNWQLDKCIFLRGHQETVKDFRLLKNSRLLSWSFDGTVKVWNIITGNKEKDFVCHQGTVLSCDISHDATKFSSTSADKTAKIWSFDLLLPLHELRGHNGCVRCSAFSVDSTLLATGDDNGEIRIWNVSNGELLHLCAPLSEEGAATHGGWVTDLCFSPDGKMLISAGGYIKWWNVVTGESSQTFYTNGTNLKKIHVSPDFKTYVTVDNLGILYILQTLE
The format is functional.

For assay [2], the target named is T2, Sentrin-specific protease 6 (Homo sapiens, UniProt Q9GZR1).
T2 sequence (Q9GZR1 whole entry): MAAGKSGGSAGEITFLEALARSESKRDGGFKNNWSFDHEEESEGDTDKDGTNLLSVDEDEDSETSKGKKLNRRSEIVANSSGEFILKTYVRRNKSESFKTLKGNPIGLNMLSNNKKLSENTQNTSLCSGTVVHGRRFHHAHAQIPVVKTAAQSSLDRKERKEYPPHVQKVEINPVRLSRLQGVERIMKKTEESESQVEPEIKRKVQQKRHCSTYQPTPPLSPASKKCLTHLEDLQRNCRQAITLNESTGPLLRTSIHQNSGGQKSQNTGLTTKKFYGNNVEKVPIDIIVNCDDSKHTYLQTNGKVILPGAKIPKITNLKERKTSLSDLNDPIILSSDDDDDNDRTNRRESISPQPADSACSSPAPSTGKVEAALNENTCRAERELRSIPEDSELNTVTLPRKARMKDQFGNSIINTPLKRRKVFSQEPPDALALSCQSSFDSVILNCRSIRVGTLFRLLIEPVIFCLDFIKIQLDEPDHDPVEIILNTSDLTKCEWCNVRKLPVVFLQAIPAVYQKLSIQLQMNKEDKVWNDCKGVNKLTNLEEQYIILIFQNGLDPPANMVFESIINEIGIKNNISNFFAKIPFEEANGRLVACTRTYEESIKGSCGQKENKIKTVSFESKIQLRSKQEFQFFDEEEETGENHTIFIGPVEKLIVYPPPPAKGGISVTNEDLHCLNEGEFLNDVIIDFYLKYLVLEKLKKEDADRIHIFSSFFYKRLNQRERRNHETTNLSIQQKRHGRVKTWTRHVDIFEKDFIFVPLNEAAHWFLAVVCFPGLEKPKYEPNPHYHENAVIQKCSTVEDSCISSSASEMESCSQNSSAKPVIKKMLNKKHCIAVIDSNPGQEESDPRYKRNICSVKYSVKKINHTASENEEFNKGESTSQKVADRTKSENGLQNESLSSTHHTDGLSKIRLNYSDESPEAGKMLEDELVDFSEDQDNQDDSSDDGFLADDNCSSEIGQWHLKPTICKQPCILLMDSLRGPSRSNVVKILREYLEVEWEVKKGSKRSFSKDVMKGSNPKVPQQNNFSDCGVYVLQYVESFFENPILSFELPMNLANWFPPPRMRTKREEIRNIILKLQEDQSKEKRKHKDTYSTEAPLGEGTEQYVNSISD
As to the kind of experiment: SAR Analysis of small molecule inhibitors of Sentrin-specific protease 6 (SENP6) using a Luminescent assay. [Related pubchem assays (depositor defined):AID2582, AID2599]. It counts as functional.

Assay [3] deals with T3, Mannose-6-phosphate isomerase (Homo sapiens, UniProt P34949).
T3 sequence (P34949 whole entry): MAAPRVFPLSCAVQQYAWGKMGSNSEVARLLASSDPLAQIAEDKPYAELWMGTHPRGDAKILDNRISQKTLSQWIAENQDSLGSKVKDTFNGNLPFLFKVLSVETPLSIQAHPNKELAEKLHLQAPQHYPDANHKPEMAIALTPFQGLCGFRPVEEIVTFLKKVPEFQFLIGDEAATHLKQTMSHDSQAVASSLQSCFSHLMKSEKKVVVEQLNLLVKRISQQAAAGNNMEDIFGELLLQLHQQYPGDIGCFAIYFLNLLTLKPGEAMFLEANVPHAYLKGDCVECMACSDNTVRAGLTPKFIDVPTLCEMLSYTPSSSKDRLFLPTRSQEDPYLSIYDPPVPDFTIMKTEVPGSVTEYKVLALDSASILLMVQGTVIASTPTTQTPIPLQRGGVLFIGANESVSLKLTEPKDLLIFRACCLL
The assay is described as follows: MPI enzyme activity inhibition – biochemical, fluorescence intensity, coupled assay, primary screen (AID 1209).

Assay [4] can be described thus: HCT116 cell viability decrease, GSK3B pretreatment – CellTiter-Glo, IC50, dose response (AID 1117339). The format is functional. Conditions: HCT-116.
The next assay deals with BJ. The assay is described as follows: growth inhibition of engineered Ras-driven BJ cells – cell-based, alamar blue fluorescence, cherrypicked samples, dose response (AID 2631).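 Also: confirmatory dose-response assay in RAS-dependent BJ fibroblasts engineered with TERT, LT and ST, with cytotoxicity read by fluorescence.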 Conditions: Homo sapiens. It counts as functional. Background: Alamar Blue is a resazurin reagent that responds to reducing activity.

Active and inactive are the calls of the source. Rule as the data show it, for most assays here: actives have a measured IC50 and inactives only a lower limit.

The term IC50 denotes the point on the concentration scale where inhibition reaches its midpoint. In general, EC50 refers to the concentration needed to bring the measured effect to its halfway point.

In the case of `CCCOc1cc2c(C#N)c(N3CCCC3)nc(N)c2c(N)n1`, in assay [1], the IC50 is 15 µM (active).
In the case of `Oc1ccc(/C=N/Nc2cc(N3CCCC3)nc(N3CCCC3)n2)cc1O`, the figures for the IC50 in assay [2], in assay [1] and in assay [3] were 10.5 µM (active), 2.56 µM (active) and > 50 µM (not active), respectively.
For the compound `Cc1cc2nc3ccc(N(C)C)cc3[s+]c2cc1N` [TOLONIUM CHLORIDE], in assay [4], the IC50 was 1.69 µM (active). In addition, the EC50 in the assay with BJ is 0.491 µM (inconclusive).
